Source: ChEMBL document CHEMBL4842346, “Improving the metabolic stability of antifungal compounds based on a scaffold hopping strategy: Design, synthesis, and structure-activity relationship studies of dihydrooxazole derivatives” (Eur J Med Chem, 2021)
Values after ≈ are worked out from the molar mass of the structure shown.

Tests used:
Format in all cases: functional
Candida parapsilosis = experiment: Antifungal activity against Candida parapsilosis GIM2.190 assessed as inhibition of fungal growth by NCCLS protocol based method; settings: Lodderomyces parapsilosis
Aspergillus fumigatus = experiment: Antifungal activity against Aspergillus fumigatus CGMCC3.7795 assessed as inhibition of fungal growth by NCCLS protocol based method
Candida albicans [1] = experiment: Antifungal activity against Candida albicans GIM2.194 assessed as inhibition of fungal growth by NCCLS protocol based method
Candida albicans [2] = experiment: Antifungal activity against Candida albicans SC5314 assessed as inhibition of fungal growth by NCCLS protocol based method
Pichia kudriavzevii = experiment: Antifungal activity against Candida krusei GIM2.1 assessed as inhibition of fungal growth by NCCLS protocol based method
Candida tropicalis = experiment: Antifungal activity against Candida tropicalis GIM2.183 assessed as inhibition of fungal growth by NCCLS protocol based method
Cryptococcus neoformans [3] = experiment: Antifungal activity against Cryptococcus neoformans GIM2.209 assessed as inhibition of fungal growth by NCCLS protocol based method
Candida albicans [4] = experiment: Antifungal activity against fluconazole and itraconazole resistant Candida albicans 17# assessed as inhibition of fungal growth by NCCLS protocol based method
Candida albicans [5] = experiment: Antifungal activity against fluconazole resistant Candida albicans CaR assessed as inhibition of fungal growth by NCCLS protocol based method
Cryptococcus neoformans [6] = experiment: Antifungal activity against Cryptococcus neoformans CGMCC2.3161 assessed as inhibition of fungal growth by NCCLS protocol based method
Candida albicans [7] = experiment: Antifungal activity against Candida albicans CPCC400523 assessed as inhibition of fungal growth by NCCLS protocol based method

Compound	MIC (Candida parapsilosis) [µg/mL]	MIC (Aspergillus fumigatus) [µg/mL]	MIC (Candida albicans [1]) [µg/mL]	MIC (Candida albicans [2]) [µg/mL]	MIC (Pichia kudriavzevii) [µg/mL]	MIC (Candida tropicalis) [µg/mL]	MIC (Cryptococcus neoformans [3]) [µg/mL]	MIC (Candida albicans [4]) [µg/mL]	MIC (Candida albicans [5]) [µg/mL]	MIC (Cryptococcus neoformans [6]) [µg/mL]	MIC (Candida albicans [7]) [µg/mL]
N#Cc1ccc(-c2ccc(C3=NC(Cn4cncn4)(c4ccccc4)CO3)cc2)cc1 (centres undefined)	> 64	> 64	> 16	> 16	> 64	> 16					
c1ccc(-c2ccc(C3=NC(Cn4ccnc4)C(c4ccccc4)O3)cc2)cc1 (centres undefined)		> 64	> 64	> 64		> 64	> 64				
Fc1ccccc1-c1ccc(C2=NC(Cn3cncn3)(c3ccc(Cl)cc3)CO2)cc1 (centres undefined)	4 (≈ 9.24 µM)	> 64	< 0.03	< 0.03	0.25 (≈ 0.578 µM)	0.06 (≈ 0.139 µM)		> 64	0.25 (≈ 0.578 µM)		
FC(F)(F)Oc1ccc(-c2ccc(C3=NC(Cn4cncn4)(c4ccccc4)CO3)cc2)cc1 (centres undefined)	> 64	> 64	> 16	> 16	> 64	> 16					
Fc1cc(F)cc(C2(Cn3cncn3)COC(c3ccc(-c4ccccc4F)cc3)=N2)c1 (centres undefined)	> 64	> 64	> 16	0.06 (≈ 0.138 µM)	> 64	> 16					
c1ccc(-c2ccc(C3=NC(Cn4cnnn4)(c4ccccc4)CO3)cc2)cc1 (centres undefined)	> 64	> 64	> 16	> 16	> 64	> 16					
Fc1cccc(-c2ccc(C3=NC(Cn4cncn4)(c4ccccc4)CO3)cc2)c1 (centres undefined)	16 (≈ 40.2 µM)	> 64	< 0.03	< 0.03	< 0.125	0.06 (≈ 0.151 µM)					
O=C(c1ccc(-c2ccccc2)cc1)N1CCC[C@@H]1Cn1ccnc1		> 64		> 64						> 64	> 64
Fc1ccccc1-c1ccc(C2=NC(Cn3cncn3)(c3ccccc3)CO2)cc1 (centres undefined)	16 (≈ 40.2 µM)	> 64	< 0.03	< 0.03	0.5 (≈ 1.25 µM)	0.06 (≈ 0.151 µM)					
Fc1ccc(-c2ccc(C3=NC(Cn4cncn4)(c4ccccc4)CO3)cc2)cc1 (centres undefined)	> 64	> 64	> 16	0.25 (≈ 0.627 µM)	> 64	8 (≈ 20.1 µM)					
FC(F)(F)c1ccc(-c2ccc(C3=NC(Cn4cncn4)(c4ccccc4)CO3)cc2)cc1 (centres undefined)	> 64	> 64	> 16	> 16	> 64	> 16					
c1ccc(-c2ccc(C3=NC(Cn4cncn4)(c4ccccc4)CO3)cc2)cc1 (centres undefined)	0.25 (≈ 0.657 µM)	2 (≈ 5.26 µM)	< 0.03	< 0.03	0.25 (≈ 0.657 µM)	0.06 (≈ 0.158 µM)					
CC(C)(O)C(Cn1ccnc1)NC(=O)c1ccc(-c2ccccc2)cc1 (centres undefined)		> 64		8 (≈ 22.9 µM)						> 64	> 64
Fc1cccc(-c2ccc(C3=NC(Cn4cncn4)(c4cccc(F)c4)CO3)cc2)c1 (centres undefined)	> 64	> 64	0.06 (≈ 0.144 µM)	0.06 (≈ 0.144 µM)	> 64	0.25 (≈ 0.6 µM)		> 64	> 64		
Fc1cccc(-c2ccc(C3=NC(Cn4cncn4)(c4cc(F)cc(F)c4)CO3)cc2)c1 (centres undefined)	> 64	> 64	> 16	0.06 (≈ 0.138 µM)	> 64	> 16					
c1ccc(-c2ccc(C3=N[C@H](Cn4ccnc4)CO3)cc2)cc1		> 64		> 64						> 64	> 64
O=C(c1ccccc1)C1(Cn2ccnc2)COC(c2ccc(-c3ccccc3)cc2)=N1 (centres undefined)		> 64	> 64	0.5 (≈ 1.23 µM)		> 64	> 64				

Compound	MIC (Candida parapsilosis) [µg/mL]	MIC (Aspergillus fumigatus) [µg/mL]	MIC (Candida albicans [1]) [µg/mL]	MIC (Candida albicans [2]) [µg/mL]	MIC (Pichia kudriavzevii) [µg/mL]	MIC (Candida tropicalis) [µg/mL]	MIC (Cryptococcus neoformans [3]) [µg/mL]	MIC (Candida albicans [4]) [µg/mL]	MIC (Candida albicans [5]) [µg/mL]	MIC (Cryptococcus neoformans [6]) [µg/mL]	MIC (Candida albicans [7]) [µg/mL]
C[C@H]1OC(c2ccc(-c3ccccc3)cc2)=N[C@H]1Cn1ccnc1		> 64	> 64	> 64		4 (≈ 12.6 µM)	> 64				
CN(C)C(=O)C(Cn1ccnc1)NC(=O)c1ccc(-c2ccccc2)cc1 (centres undefined)		> 64		4 (≈ 11 µM)						> 64	> 64
Fc1cc(F)cc(-c2ccc(C3=NC(Cn4cncn4)(c4ccccc4)CO3)cc2)c1 (centres undefined)	> 64	> 64	> 16	> 16	> 64	> 16					
O=C(NC(Cn1ccnc1)C1COC1)c1ccc(-c2ccccc2)cc1 (centres undefined)		> 64		8 (≈ 23 µM)						> 64	> 64
c1ccc(CC2(Cn3ccnc3)COC(c3ccc(-c4ccccc4)cc3)=N2)cc1 (centres undefined)		> 64	0.5 (≈ 1.27 µM)	< 0.125		0.5 (≈ 1.27 µM)	> 64				
FC(F)(c1ccccc1)C1(Cn2ccnc2)COC(c2ccc(-c3ccccc3)cc2)=N1 (centres undefined)		> 64	> 64	< 0.125		< 0.125	> 64				
CC1(Cn2ccnc2)COC(c2ccc(-c3ccccc3)cc2)=N1 (centres undefined)		0.5 (≈ 1.58 µM)	8 (≈ 25.2 µM)	2 (≈ 6.3 µM)		4 (≈ 12.6 µM)	> 64				
O=C(c1ccc(-c2ccccc2)cc1)N1CCC[C@H]1Cn1ccnc1		8 (≈ 24.1 µM)		16 (≈ 48.3 µM)						> 64	32 (≈ 96.6 µM)
Fc1ccccc1-c1ccc(C2=NC(Cn3cncn3)(c3cccc(Cl)c3)CO2)cc1 (centres undefined)	> 64	> 64	> 16	0.06 (≈ 0.139 µM)	> 64	> 16					
Fc1cccc(C2(Cn3cncn3)COC(c3ccc(-c4ccccc4F)cc3)=N2)c1 (centres undefined)	> 64	> 64	0.06 (≈ 0.144 µM)	0.06 (≈ 0.144 µM)	> 64	0.25 (≈ 0.6 µM)		> 64	> 64		
Clc1ccccc1-c1ccc(C2=NC(Cn3cncn3)(c3ccccc3)CO2)cc1 (centres undefined)	> 64	> 64	> 16	> 16	> 64	> 16					
Clc1ccc(-c2ccc(C3=NC(Cn4cncn4)(c4ccccc4)CO3)cc2)cc1 (centres undefined)	> 64	> 64	> 16	> 16	> 64	> 16					
Clc1cccc(-c2ccc(C3=NC(Cn4cncn4)(c4ccccc4)CO3)cc2)c1 (centres undefined)	> 64	> 64	> 16	> 16	> 64	> 16					
Fc1cc(-c2ccccc2)ccc1C1=NC(Cn2cncn2)(c2ccccc2)CO1 (centres undefined)	16 (≈ 40.2 µM)	> 64	0.06 (≈ 0.151 µM)	< 0.03	> 64	0.06 (≈ 0.151 µM)					
CC(C)C1OC(c2ccc(-c3ccccc3)cc2)=NC1Cn1ccnc1 (centres undefined)		> 64	> 64	0.5 (≈ 1.45 µM)		< 0.125	> 64				
Fc1cc(C2=NC(Cn3cncn3)(c3ccccc3)CO2)ccc1-c1ccccc1 (centres undefined)	4 (≈ 10 µM)	> 64	< 0.03	< 0.03	0.5 (≈ 1.25 µM)	0.06 (≈ 0.151 µM)					
CCC(C)n1ncn(-c2ccc(N3CCN(c4ccc(OCC5COC(Cn6cncn6)(c6ccc(Cl)cc6Cl)O5)cc4)CC3)cc2)c1=O (centres undefined) [ITRACONAZOLE]	< 0.125	< 0.125	< 0.125	< 0.03	< 0.125	< 0.125	< 0.125			< 0.125	< 0.125
